The record followed here is US10426773B2, “Systems pharmacology for treating ocular disorders” (Case Western Reserve Univeristy, priority 2011, dated 2019).

For series [1], the system named is ROS generation in photoreceptors of Abca4−/−Rdh8−/− mice. In words: In vivo detection of ROS (DHE probe) in retinas of light-exposed Abca4−/−Rdh8−/− mice. Details: species or system mouse. To be noted: Example 1; pretreatment before light 10,000 lux 30 min; retinas 3 h after illumination.
Protocol: The ROS probe, DHE, at a dose of 20 mg/kg body weight was administered to Abca4^−/−Rdh8^−/− mice via intraperitoneal injection 30 min prior to light exposure. Eye cups obtained after removing the cornea, lens and vitreous body from enucleated eye globes 3 h post light illumination were fixed in 4% paraformaldehyde. Cryosections were prepared from fixed eye cups and cut at 12 am thickness for microscopic assessment of ROS signal fluorescence in the retina.
The ROS probe, DHE, at a dose of 20 mg/kg body weight in 25 μl of DMSO, was administered to Abca4^−/−Rdh8^−/− mice via intraperitoneal injection 1 h prior to light exposure. Eye cups obtained after removing the cornea, lens, and vitreous body from enucleated eye globes 3 h post light illumination were fixed in 4% paraformaldehyde. Cryosections were prepared from fixed eye cups and cut at 12-am thickness for microscopic assessment of ROS fluorescence in the retina with ImageJ software (National Institutes of Health).
Series [2] deals with Abca4−/−Rdh8−/− mice. In words: Bright light-induced retinal degeneration in Abca4−/−Rdh8−/− mice, retinal histology and immunohistochemistry. The class given is in vivo, mouse. To be noted: pretreatment before light 10,000 lux 30 min; 7-10 days after light exposure. Here is the method: Retinal histology and immunohistochemistry (IHC) was performed as previously described. Briefly, eye cups free of cornea, lens and vitreous body were fixed in 2% glutaraldehyde/4% paraformaldehyde and processed for Epon embedding. Sections 1 am thick were cut and stained with toluidine blue for histological examination under a light microscope. IHC analysis was performed on 12 am thick cryosections prepared from 4% paraformaldehyde-fixed eye cups. Collected cryosections were subjected to examination for rhodopsin, PNA and DAPI expression.
Retinal immunohistochemistry (IHC) was carried out as previously described. Briefly, eyes were enucleated and eye cups were made to eliminate cornea, lens and vitreous body and fixed in 4% paraformaldehyde and processed for cryosectioning. 12 am thick cryosections were collected cryosections and subjected to examination for rhodopsin, peanut agglutinin lectin (PNA) and DAPI expression.
Retinal immunohistochemistry (IHC) was performed as previously described. Briefly, eyes were enucleated and, after removal of the cornea, lens and vitreous body, eye cups were fixed in 4% paraformaldehyde and processed for cryosectioning. Twelve μm thick cryosections were cut, collected and examined for rhodopsin expression, peanut agglutinin lectin (PNA) for cone sheath and nuclear DAPI staining. […]

Series [3] deals with Abca4−/−Rdh8−/− mice. In words: Bright light-induced retinal degeneration in Abca4−/−Rdh8−/− mice, ERG retinal function. To be noted: pretreatment before light 10,000 lux 30 min, ERG 7 days to 2 weeks after.
The subject of series [4] is Abca4−/−Rdh8−/− mice. In words: Bright light-induced retinal degeneration in Abca4−/−Rdh8−/− mice, OCT imaging of retinal structure. In kind it is in vivo, mouse. The settings on record: for retinal / photoreceptor morphology by OCT imaging: pretreatment before light 10,000 lux 30 min, OCT 7 days after light exposure; for Percent of mice with: subeffective doses BRM 0.1, MTP 1, TAM 0.05, DOX 1 mg/kg bw, OCT 7 days; for Effect (effectiveness at preventing light-induced photoreceptor degeneration as measured by OCT imaging): ip, dose of each compound in column Dose of Table 1.

Series [5] concerns retinal transcriptome of Abca4−/−Rdh8−/− mice. In words: RNA-seq retinal transcriptome of pretreated, light-exposed Abca4−/−Rdh8−/− mice (differential expression, Pearson, GSEA). In kind it is in vivo, mouse.
Series [6] relates to Abca4−/−Rdh8−/− mice. In words: Bright light-induced retinal degeneration in Abca4−/−Rdh8−/− mice, SLO autofluorescence imaging. The class given is in vivo, mouse. To be noted: pretreatment before light 10,000 lux 30 min; SLO 8-9 days after light exposure. Here is the method:
SLO (Heidelberg Engineering, Heidelberg, Germany) was carried out for whole fundus imaging of mouse retinas. Mice were anesthetized by intraperitoneal injection of anesthetic cocktail indicated above, which was followed by pupil dilation using 1% tropicamide prior to SLO imaging under autofluorescence mode.
SLO (Heidelberg Engineering) was carried out for in vivo whole fundus imaging of mouse retinas. […] Numbers of autofluorescent spots were counted and subjected to statistical analyses as described below.
SLO (Heidelberg Engineering) was carried out for whole fundus imaging of mouse retinas in vivo. Mice were anesthetized, and their pupils were dilated as described above. SLO images were then acquired in the autofluorescence mode.

[7] abbreviates: GSEA, vehicle-treated light-exposed retinas against drug-treated.

“Also recorded” adds a separate entry of the source. Where a name gives a salt, the structure may show the parent alone.

Regarding `CC(C)C[C@H](CN)CC(=O)O` (single isomer, unassigned) [R and S enantiomer of pregabalin, pregabalin], in series [1], the “ROS production in the ONL / photoreceptors (DHE signal)” value was “also consistently observed”.
Regarding `C[N+]1(C)CCC(OC(=O)C(c2ccccc2)c2ccccc2)CC1.[I-]` [4-DAMP, 1,1-dimethyl-4-diphenylacetoxypiperidinium iodide], the “retinal histology / immunohistochemistry (rhodopsin, PNA, DAPI; ONL)” value (“retinal histology / immunohistochemistry” below) with Abca4−/−Rdh8−/− mice [2] is “preserve retinal morphology”. In addition, the “retinal function by ERG (a-wave and b-wave amplitudes)” value (“retinal function by ERG” for short) in the series on Abca4−/−Rdh8−/− mice [3] was “protective effect”.
Turning to `CCCN(CCC)C1CCc2cccc(O)c2C1` (stereo not shown) [8-OH-DPAT, 8-hydroxy-N,N-dipropyl-2-aminotetralin], the “retinal / photoreceptor morphology by OCT imaging” value (from here on “retinal / photoreceptor morphology”) in the series on Abca4−/−Rdh8−/− mice [4] is reported as “protective effect; also recorded: dose-dependent”.
With `CC(C)C[C@H]1C(=O)N2CCC[C@H]2[C@]2(O)O[C@](NC(=O)[C@@H]3C=C4c5cccc6[nH]c(Br)c(c56)C[C@H]4N(C)C3)(C(C)C)C(=O)N12` [BRM, 2-Bromo-α-ergocryptine methanesulfonate salt], in series [5] (setting [7]), the “NES, CHEMOKINE SIGNALING gene set” value was 1.67; the “NES, CYTOKINE- RECEPTOR INTERACTIO gene set” value worked out at 2.31; the “NES, P53 gene set” value came to 2.06; the “NES, TOLL-LIKE SIGNALING gene set” value was 2.20. Besides, the “NES, APOPTOSIS gene set” value in series [5] (GSEA, vehicle-treated light-exposed retinas against drug-treated, P in brackets not reported here) is given as 1.75. The “number of light-up-regulated gene sets significantly down-regulated (GSEA)” value in series [5] (of 44 gene sets up-regulated by light, mono doses BRM 1, MTP 10, TAM 2.5, DOX 10 mg/kg bw) is listed as 29 gene sets. In addition, the “Percent of mice with” value in the series with Abca4−/−Rdh8−/− mice [4] (Table 14 (complete protection, ONL ≥50 μm)) is reported as 16.7% of mice. Also, the “Percent of mice with” value in the series with Abca4−/−Rdh8−/− mice [4] (Table 14 (no protection, ONL ≤20 μm)) is 66.7% of mice. Also, in the series on Abca4−/−Rdh8−/− mice [4] (lower doses BRM 0.1, MTP 1, TAM 0.05 mg/kg bw, alone or all three combined), the “light-exposed mice with complete retinal protection” value was 17%.
Consider `c1ccc([I+]c2ccccc2)cc1` [DPI, diphenyliodonium], for which the “retinal histology / immunohistochemistry” value in the series on Abca4−/−Rdh8−/− mice [2] is on record as “nearly intact retinal morphology”. In addition, the “retinal function by ERG” value in the series on Abca4−/−Rdh8−/− mice [3] is recorded as “protective effect”. Further, the “retinal / photoreceptor morphology” value in the series on Abca4−/−Rdh8−/− mice [4] is reported as “well-preserved retinal morphology”.
Take `Cl.N=C(N)NC(=O)Cc1c(Cl)cccc1Cl` [Guanfacine]: the “retinal autofluorescence spots by SLO imaging” value (“retinal autofluorescence spots” for short) in the series on Abca4−/−Rdh8−/− mice [6] is on record as “markedly less autofluorescence spots”. For the same compound, the “retinal histology / immunohistochemistry” value with Abca4−/−Rdh8−/− mice [2] is given as “substantially preserved photoreceptor morphology”. Also, in the series with Abca4−/−Rdh8−/− mice [4], the “retinal / photoreceptor morphology” value was “significantly prevented”.
For `c1ccc2c(c1)OCC(C1=NCCN1)O2` (stereo not shown) [IDA, idazoxan], the “effect on the protective action of GUB” value in the series on Abca4−/−Rdh8−/− mice [4] (IDA 2.5 and 5 mg/kg BW first, then GUB 2 mg/kg BW, FIG. 25D) was “totally abolished the protective action”.
For `CC(C)n1cc2c3c(cccc31)[C@H]1C[C@@H](C(=O)N[C@H]3CCC[C@H]3O)CN(C)[C@@H]1C2` [LY 215840, (8β)-N-[(1S,2R)-2-Hydroxycyclopentyl]-1-isopropyl-6-methylergoline-8-carboxamide], the “retinal autofluorescence spots” value in the series on Abca4−/−Rdh8−/− mice [6] is given as “significantly reduced formation of autofluorescence spots”. The “retinal histology / immunohistochemistry” value in the series on Abca4−/−Rdh8−/− mice [2] is “substantially preserved photoreceptor morphology”. Moreover, the “retinal function by ERG” value with Abca4−/−Rdh8−/− mice [3] (listed as LY) is given as “substantial preservation of the scotopic ERG response; also recorded: substantial preservation of this response”. Also, the “retinal / photoreceptor morphology” value with Abca4−/−Rdh8−/− mice [4] was “profound preservation of photoreceptor morphology”.
As for `CC(Oc1c(Cl)cccc1Cl)C1=NCCN1.Cl` (stereo not shown) [Lofexidine], in the series with Abca4−/−Rdh8−/− mice [6], the “retinal autofluorescence spots” value is given as “markedly less autofluorescence spots”. Besides, in the series on Abca4−/−Rdh8−/− mice [3] (listed as LOF), the “retinal function by ERG” value is on record as “substantial preservation of the scotopic ERG response; also recorded: substantial preservation of this response”. In addition, the “retinal / photoreceptor morphology” value in the series on Abca4−/−Rdh8−/− mice [4] is listed as “significantly prevented”.
On to `COc1cc2nc(N3CCN(C(=O)c4ccco4)CC3)nc(N)c2cc1OC.Cl` [Prazosin], for which, in the series on Abca4−/−Rdh8−/− mice [6], the “retinal autofluorescence spots” value is on record as “significantly protected retinas from developing light-induced damage”. The “retinal histology / immunohistochemistry” value in the series on Abca4−/−Rdh8−/− mice [2] is “substantially preserved photoreceptor morphology”. In addition, the “retinal / photoreceptor morphology” value in the series on Abca4−/−Rdh8−/− mice [4] is listed as “substantial protection on photoreceptor morphology”.
For `COc1cc(N)c(Cl)cc1C(=O)OCCCN1CCCCC1.Cl` [RS 23579-190], the “retinal autofluorescence spots” value with Abca4−/−Rdh8−/− mice [6] is given as “significantly reduced formation of autofluorescence spots”. For the same compound, the “retinal histology / immunohistochemistry” value with Abca4−/−Rdh8−/− mice [2] is “substantially preserved photoreceptor morphology”. Besides, the “retinal function by ERG” value in the series with Abca4−/−Rdh8−/− mice [3] (listed as RS) is “substantial preservation of the scotopic ERG response; also recorded: substantial preservation of this response”. Moreover, the “retinal / photoreceptor morphology” value in the series on Abca4−/−Rdh8−/− mice [4] is on record as “profound preservation of photoreceptor morphology”.
As to `CC1=C(/C=C/C(C)=C/C=C/C(C)=C/CN)C(C)(C)CCC1` [Ret-NH2, all-trans-retinylamine], the “ROS production in the ONL / photoreceptors (DHE signal)” value in series [1] was “significantly decreased ROS production”.
As to `CNc1cc(NS(=O)(=O)c2ccc(N)cc2)nc(NC)n1` [Ro 04-6790, 4-Amino-N-[2,6-bis(methylamino)-4-pyrimidinyl]benzenesulfonamidev], in the series on Abca4−/−Rdh8−/− mice [6], the “retinal autofluorescence spots” value is reported as “significantly reduced formation of autofluorescence spots”. The “retinal histology / immunohistochemistry” value with Abca4−/−Rdh8−/− mice [2] was “substantially preserved photoreceptor morphology”. The “retinal function by ERG” value in the series with Abca4−/−Rdh8−/− mice [3] (listed as RO) was “substantial preservation of the scotopic ERG response; also recorded: substantial preservation of this response”. Besides, in the series on Abca4−/−Rdh8−/− mice [4], the “retinal / photoreceptor morphology” value is listed as “profound preservation of photoreceptor morphology”.
Turning to `CC1CCN(CC[C@H]2CCCN2S(=O)(=O)c2cccc(O)c2)CC1.Cl` [SB 269970, 3-({(2R)-2-[2-(4-Methyl-1-piperidinyl)ethyl]-1-pyrrolidinyl}sulfonyl)phenol hydrochloride (1:1)], in the series on Abca4−/−Rdh8−/− mice [6], the “retinal autofluorescence spots” value is given as “significantly reduced formation of autofluorescence spots”. Further, the “retinal / photoreceptor morphology” value in the series on Abca4−/−Rdh8−/− mice [4] is “profound preservation of photoreceptor morphology”.
For `CN1CCC(c2cn(C)c3ccc(OS(=O)(=O)c4c(F)cccc4F)cc23)CC1` [SGS 518 oxalate], in the series on Abca4−/−Rdh8−/− mice [6], the “retinal autofluorescence spots” value is given as “significantly reduced formation of autofluorescence spots”. Moreover, the “retinal histology / immunohistochemistry” value with Abca4−/−Rdh8−/− mice [2] is on record as “substantially preserved photoreceptor morphology”. In addition, the “retinal / photoreceptor morphology” value in the series with Abca4−/−Rdh8−/− mice [4] is “profound preservation of photoreceptor morphology”.
On to `COc1ccc2c(c1)CC[C@@H]1[C@@H]2CC[C@]2(C)[C@@H](NCCCCCCN3C(=O)C=CC3=O)CC[C@@H]12` [U-73122, 1-(6-((17β-3-methoxyestra-1,3,5(10)-trien-17-yl)amino)hexyl)-1H-pyrrole-2,5-dione], for which the “retinal histology / immunohistochemistry” value in the series on Abca4−/−Rdh8−/− mice [2] is recorded as “markedly less light-induced photoreceptor damage”. Also, the “retinal function by ERG” value with Abca4−/−Rdh8−/− mice [3] is “protective effect”.
Consider `COC(=O)[C@@H]1[C@H]2C[C@H]3c4[nH]c5ccccc5c4CCN3C[C@@H]2CC[C@@H]1O.Cl` [Yohimbine], for which the “Effect (effectiveness at preventing light-induced photoreceptor degeneration as measured by OCT imaging)” value in the series on Abca4−/−Rdh8−/− mice [4] is listed as “toxic”.
Turning to `O=C(c1ccc(F)cc1)C1CCN(CCn2c(=O)[nH]c3ccccc3c2=O)CC1` [ketanserin], in the series on Abca4−/−Rdh8−/− mice [2], the “retinal histology / immunohistochemistry” value was “substantial protective effect”. In addition, the “retinal function by ERG” value in the series on Abca4−/−Rdh8−/− mice [3] is on record as “protective effect”.
Regarding `Cc1nc2sccn2c(=O)c1CCN1CCC(=C(c2ccc(F)cc2)c2ccc(F)cc2)CC1` [ritanserin, Ritanserin], in the series with Abca4−/−Rdh8−/− mice [3], the “retinal function by ERG” value was “protective effect”. Moreover, the “retinal / photoreceptor morphology” value in the series with Abca4−/−Rdh8−/− mice [4] was “substantially protected photoreceptors from light-induced degeneration”.
As to Eltoprazine, in the series with Abca4−/−Rdh8−/− mice [4], the “Effect (effectiveness at preventing light-induced photoreceptor degeneration as measured by OCT imaging)” value was determined as 20%.
